Test results published in PMC9605374 (Marine Drugs, 2022).

Assays:
Format in all cases: cell-based, human
22Rv1 cells [1] = experiment: Annexin-V-FITC/PI double staining, flow cytometry
Procedure: (§1) Figure 4 Investigation of the proapoptotic activity of NB. Flow cytometry analysis of 22Rv1 cells after 48 h of treatment. (A) Cell cycle and DNA fragmentation analysis. Treated cells were stained with PI and analyzed using a flow cytometry technique. Sub-G1 population was assumed to be apoptotic cells containing fragmentated DNA. (B) Analysis of phosphatidylserine externalization. Treated cells were double-stained with annexin-V-FITC and PI and analyzed using the flow cytometry technique. Cells of the low left quadrant (annexin-V-FITC^−/PI^−) were considered as alive cells. The Cell Quest Pro v.5.2.1 software (BD Bioscience, San Jose, CA, USA) was used to analyze and quantify the FACS data. Cells treated for 48 h with 10 µM of anisomycin were used as a positive control. Number of replicates n = 3. Statistical significance: * p < 0.05 (ANOVA). […]
Externalization of phosphatidylserine is a distinct marker of apoptotic cell death that can be detected by flow cytometry using annexin-V-FITC and propidium iodide (PI) double staining. […] Cells were harvested utilizing trypsin, stained with annexin-V-FITC and propidium iodide, and analyzed using FACS Calibur (BD Bioscience, San Jose, CA, USA).

22Rv1 cells [2] = experiment: Cell cycle progression and DNA fragmentation analysis (PI, flow cytometry); details: 22Rv1, 48 h
Procedure: as §1
DNA fragmentation and cell cycle progression of treated and untreated cells (negative control) were analyzed by flow cytometry as previously described. […]

[3] = test system: serine-/threonine kinases (JNK1/2, p38) in 22Rv1 cells; experiment: Kinome profiling of serine/threonine kinases (PamGene), upstream kinase analysis; details: 22Rv1, 1 µM and 10 µM, 2 h
Source text: To further investigate the mechanism of anticancer action of NB, we examined the effects of the compound on serine-/threonine protein kinases. Protein kinases modify target molecules (proteins) via phosphorylation, thus, altering their activity. A subgroup of these kinases—serine-/threonine kinases (STK)—play a key role in various essential processes related to cell death and cell survival. Consequently, protein kinases, in general, are important target molecules for various anticancer drugs. Specifically, modification of STKs’ activity has been exploited as a mechanism of action. Several clinically approved drugs, such as sunitinib, palbociclib, cobimetinib, and axitinib, utilize this mechanism to execute their therapeutic action. Thus, we performed functional kinomics using the microarray-based PamGene technology. This method allows a systematic examination of the changes in STK activity (http://www.pamgene.de, accessed on 22 January 2022, Figure 5A–D). We used two different concentrations, specifically, 1 µM and 10 µM, in order to cover different biological effects, which may take place at the different drug doses (Figure 5A). […]
Figure 5 Kinome profiling of serine/threonine kinases (STKs). 22Rv1 cells were incubated with NB for 2 h; the proteins were extracted and STK were analyzed using functional kinome profiling. […]

## COc1ccc(C2SSC34CC5(O)C(Cl)C=CC(O)C5ON3C(=O)C2N(C)C4=O)c(O)c1OC (centres unmarked) [NB, N-methylpretrichodermamide B]
22Rv1 cells [1]; 22Rv1, 48 h
  phosphatidylserine externalization: caused DNA fragmentation and phosphatidylserine externalization
22Rv1 cells [1]; 22Rv1, zVAD 100 µM 1 h pretreatment, 48 h
  effect of pretreatment with pan-caspase inhibitor zVAD on drug-induced cell death: could not significantly inhibit
22Rv1 cells [2]
  DNA fragmentation (sub-G1 population): caused DNA fragmentation
  cell cycle arrest: G1-phase arrest
[3]
  upstream kinase analysis, JNK1/2 and p38 kinases: very likely upregulated
